The test system of experiment [1] is human immunodeficiency virus type 1 (HIV-1). Description: Inhibitory activity against HIV (EC50), cell-based luciferase reporter assay. The text has this:
[…]. Experimental procedures were essentially as described by Connor et al. in Journal of Virology (1996), 70: 5306-5311 (Characterization of the functional properties of env genes from long-term survivors of human immunodeficiency virus type 1 infection), and Popik et al. in Journal of Virology (2002), 76: 4709-4722 (Human immunodeficiency virus type 1 uses lipid raft-colocalized CD4 and chemokine receptors for productive entry into CD4^+ T cells). It should be particularly appreciated that the virus contains two introduced mutations in the RT gene (K103N and Y181C, created by PCR mutagenesis) that render the virus highly resistant to current non-nucleoside HIV-1 drugs. Virus stocks were generated by cotransfection of plasmid DNA encoding VSV-G with vector pNL4-3Env(−)Luc(+) into 293T cells. Sixty-four hours after transfection, virus-containing medium was collected by centrifugation and stored frozen at −80° C.
HeLa cells were infected with the VSV-G pseudotyped virus in the presence of screening compounds in a 384-well microtiter plate format. Forty-eight hours after initial infection, lysis buffer and Luciferase Assay Reagent (Promega) was added to the cells and luciferase activity was determined by counting the resultant luminescence using a LJL luminometer. Since the luciferase gene is carried in the virus genome, its expression level directly reflects the virus replication level in the presence of a compound.
To evaluate the activity of the compounds against wild type HIV-1, the HeLa-JC53 cell line that expresses high levels of CD4 and CCR5 (see e.g., Platt et al. in Journal of Virology (1998), 72: 2855-2864: Effect of CCR5 and CD4 cell surface concentrations on infection by macrophagetropic isolates of human immunodeficiency virus type 1) was modified by isolation of a stable cell line that expresses luciferase under the control of the HIV-1 promoter (long terminal repeat, i.e., LTR). HIV-1 infection of this cell line stimulates the transcription of luciferase from the HIV-1 promoter and the luciferase gene expression level is proportional to the level of virus replication (Harrington et al. in Journal of Virology Methods (2000), 88: 111-115: Direct detection of infection of HIV-1 in blood using a centrifugation-indicator cell assay; and Roos et al. in Virology (2000), 273: 307-315: LuSIV cells: a reporter cell line for the detection and quantitation of a single cycle of HIV and SIV replication). Procedures for virus infection, compound testing and luciferase activity determination were the same as for the VSV-G pseudotyped HIV-1.
On the technique in general: In a reporter assay the amount or activity of a reporter protein is the signal.

The target in experiment [2] is T1, wild-type HIV RT (Human immunodeficiency virus type 1 group M subtype B, UniProt P03366).
T1 construct: IC50 is indicated in microM for wild-type HIV RT
The experiment is described as follows: IC50 for wild-type HIV RT. Format: biochemical.

Setting [3] is: Table 1, inhibitory activity against HIV, read-out: EC50.

Experimental findings from US20080249131A1, “NON-NUCLEOSIDE REVERSE TRANSCRIPTASE INHIBITORS” (priority 2002, published 2008) are described below.

Where two headings read alike, the source gives them in different places. A value given as a limit tells only on which side of the number the result lay.

As to `Cc1ccc(-n2c(SCC(=O)Nc3ccc(C)cc3Br)nnc2-c2ccncc2)cc1` [compound 36], the EC50 (as a rule, the midpoint of the concentration-response curve) in experiment [1] (setting [3]) was greater than 100 µM.
With `Cc1cccc(NC(=O)CSc2nnc(C)n2-c2ccccc2)c1` [compound 40], in experiment [1] (setting [3]), the EC50 is greater than 100 µM. Moreover, the IC50 (in general, the midpoint of a concentration-inhibition curve) in experiment [2] (Table 1) lay within 10 to 100 µM.
As for `Cc1ccc(NC(=O)CSc2nnc(C)n2-c2ccccc2)cc1C` [compound 30], in experiment [1] (setting [3]), the EC50 was greater than 100 µM.
As for `Cc1ccc(NC(=O)C(C)Sc2nnc(C)n2-c2ccc(C)cc2)cc1` (stereo not drawn) [compound 45], the EC50 in experiment [1] (setting [3]) was greater than 100 µM. The same molecule yielded an IC50 in experiment [2] (Table 1, numeric value) of 36.3 µM.
In the case of `Cc1ccc(NC(=O)CSc2nnc(C)n2-c2ccccc2)cc1` [compound 47], in experiment [1] (setting [3]), the EC50 was greater than 100 µM.
Consider `Cc1cc(C)c(NC(=O)CSc2nnc(C)n2-c2ccccc2)c(C)c1` [compound 51], for which, in experiment [1] (setting [3]), the EC50 is greater than 100 µM.
Same read-out and setting: next, `Cc1ccc(-c2nnc(SCC(=O)Nc3ccccc3Br)n2C)cc1` [compound 37]: greater than 100 µM.
In turn, `CC(=O)c1ccc(NC(=O)CSc2nnc(C)n2-c2ccc(C)cc2)cc1` [compound 41] showed an EC50 in experiment [1] (Human immunodeficiency virus 1) greater than 100 µM. In experiment [2] (Table 1), this molecule gave an IC50 of 10 to 100 µM.
For `O=C(CSc1nnc(-c2ccc(Cl)cc2)n1-c1ccccc1)Nc1ccccn1` [compound 25], in experiment [1] (setting [3]), the EC50 was greater than 100 µM.
Still for that read-out and setting: next, `O=C(CSc1nnc(-c2ccncc2)n1-c1ccccc1)Nc1ccccc1I` [compound 24]: greater than 100 µM; `Cc1nnc(SCC(=O)Nc2ccccc2C(F)(F)F)n1-c1ccccc1Cl` [compound 23]: greater than 100 µM.
Turning to `Cc1ccc(NC(=O)CSc2nnc(-c3ccccc3C)n2-c2ccccc2)c(Br)c1` [compound 52], in experiment [1] (Human immunodeficiency virus 1), the concentration giving a half-maximal response (EC50) was greater than 100 µM. Also, the half-inhibitory concentration (IC50) in experiment [2] (Table 1) fell in the range of 10 to 100 µM.
For the molecule `O=C(CSc1nnc(C2CCCCC2)n1-c1ccccc1)Nc1ccccc1Br` [compound 34], in experiment [1] (Human immunodeficiency virus 1), the EC50 is greater than 100 µM. Also, in experiment [2] (Table 1), the IC50 lay in the range of 10 to 100 µM.
Take `Cc1ccccc1NC(=O)CSc1nnc(-c2ccc(Cl)cc2)[nH]1` [compound 26]: in experiment [1] (setting [3]), the EC50 fell in the range of 10 to 100 µM.
Still for that read-out and setting: next, `Cn1c(SCC(=O)Nc2ccccc2)nnc1-c1ccc(Br)cc1` [compound 27]: greater than 100 µM.
`Cc1ccc(-n2c(C)nnc2SCC(=O)Nc2ccc(C)c(Cl)c2)cc1` [compound 39]: in experiment [1] (setting [3]), the EC50 was greater than 100 µM.
`Cc1ccc(NCc2nnc(SCC(=O)Nc3ccc(C)cc3Br)n2-c2ccccc2)cc1` [compound 33]: the EC50 in experiment [1] (Human immunodeficiency virus 1) is greater than 100 µM. In experiment [2] (Table 1), this molecule registered an IC50 of 10 to 100 µM.
Consider `Cc1ccc(NC(=O)CSc2nnc(Cc3ccccc3)n2C)c(Br)c1` [compound 29], for which, in experiment [1] (setting [3]), the EC50 is greater than 100 µM. In experiment [2] (Table 1), this molecule returned an IC50 of 10 to 100 µM.
For `Cc1ccc(NC(=O)CSc2nnc(COc3ccc(C#N)cc3)n2-c2ccccc2)c(Br)c1` [compound 44], the EC50 in experiment [1] (Human immunodeficiency virus 1) was greater than 100 µM. Further, the IC50 in experiment [2] (Table 1) is 10 to 100 µM.
Turning to `Cc1nnc(SCC(=O)Nc2ccccc2)n1-c1ccccc1` [compound 49], in experiment [1] (setting [3]), the EC50 is greater than 100 µM.
For `Cc1ccc(NC(=O)CSc2nnc(-c3ccncc3)n2-c2ccccc2Cl)c(Br)c1` [compound 46], the EC50 in experiment [1] (Human immunodeficiency virus 1) was greater than 100 µM. This molecule gave an IC50 in experiment [2] (Table 1) greater than 100 µM.
